From ChEMBL document CHEMBL1130491, “Nonpeptide bradykinin antagonist analogs based on a model of a Sterling-Winthrop nonpeptide bradykinin antagonist overlapped with cyclic hexapeptide bradykinin antagonist peptides” (Bioorg Med Chem Lett, 1997) come the findings set out here.

Assay [1] is described as follows: Binding affinity towards human Bradykinin receptor, activity expressed as Kd.
Another assay deals with Substance-P receptor (Homo sapiens, UniProt P25103). The assay is described as follows: Binding affinity towards Tachykinin receptor 1, activity expressed as Kd.
Substance-P receptor, sequence (P25103 whole entry): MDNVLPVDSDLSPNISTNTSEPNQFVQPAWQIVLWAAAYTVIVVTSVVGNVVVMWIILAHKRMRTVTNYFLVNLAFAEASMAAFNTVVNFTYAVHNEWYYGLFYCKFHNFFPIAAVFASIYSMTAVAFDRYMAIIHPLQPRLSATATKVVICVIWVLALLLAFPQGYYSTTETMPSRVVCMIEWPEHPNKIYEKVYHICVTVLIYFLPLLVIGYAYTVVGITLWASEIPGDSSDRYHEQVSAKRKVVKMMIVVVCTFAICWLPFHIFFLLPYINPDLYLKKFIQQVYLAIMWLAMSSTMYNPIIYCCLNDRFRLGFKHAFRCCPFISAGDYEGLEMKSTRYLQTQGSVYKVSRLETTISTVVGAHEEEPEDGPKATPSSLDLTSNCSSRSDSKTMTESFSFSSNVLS

A word on the Kd: it is the free concentration of one partner at which half of the binding sites on the other are occupied at equilibrium, for simple one-to-one binding. Lower therefore signals a tighter complex. As to `N=C(N)NCc1ccc(NC(=O)[C@@H](Cc2ccc3ccccc3c2)N=C(NC2CCCCC2)NC2CCCCC2)cc1`, the results for the dissociation constant Kd (in assay [1]; on Substance-P receptor) were 200 nM and 860 nM, respectively. On to `CCCC[P+](CCCC)(CCCC)Cc1ccc(NC(=O)[C@H](Cc2ccc3ccccc3c2)N=C(NC2CCCCC2)NC2CCCCC2)cc1`, for which the Kd in assay [1] came out at 340 nM; on Substance-P receptor it was 670 nM. For `O=C(Nc1ccc(CO)cc1)[C@H](Cc1ccc2ccccc2c1)N/C(=N/C1CCCCC1)NC1CCCCC1`, the Kd in assay [1] amounted to 2100 nM. In the case of `NCc1ccc(NC(=O)[C@H](Cc2ccc3ccccc3c2)N=C(NC2CCCCC2)NC2CCCCC2)c(C(=O)O)c1`, the values for the Kd (in assay [1]; on Substance-P receptor) were 690 nM and 3800 nM, respectively. The matching figures for `CCCC[N+](CCCC)(CCCC)Cc1ccc(NC(=O)[C@H](Cc2ccc3ccccc3c2)N=C(NC2CCCCC2)NC2CCCCC2)cc1`: 98 nM and 540 nM. For the compound `N=C(N)NCCC[C@@H](NC(=O)C12CC3CC(CC(C3)C1)C2)C(=O)NCc1ccc(NC(=O)[C@H](Cc2ccc3ccccc3c2)N=C(NC2CCCCC2)NC2CCCCC2)cc1`, the Kd in assay [1] stood at 990 nM. Still for that read-out and setting: with `O=C(Nc1ccc(CO)cc1)[C@@H](Cc1ccc2ccccc2c1)N=C(NC1CCCCC1)NC1CCCCC1` the figure was 1500 nM. On to `CC/N=C(\NCC)NCc1ccc(NC(=O)[C@H](Cc2ccc3ccccc3c2)N=C(NC2CCCCC2)NC2CCCCC2)cc1`, for which the dissociation constant Kd in assay [1] is 460 nM; at Substance-P receptor, 1800 nM. Consider `NC(N)=NCCC[C@@H](N)C(=O)NCc1ccc(NC(=O)[C@H](Cc2ccc3ccccc3c2)N=C(NC2CCCCC2)NC2CCCCC2)cc1`, for which the equilibrium dissociation constant (Kd) in assay [1] came out at 230 nM. As to `CCCC[P+](CCCC)(CCCC)Cc1ccc(NC(=O)[C@@H](Cc2ccc3ccccc3c2)N=C(NC2CCCCC2)NC2CCCCC2)cc1`, the Kd in assay [1] was 44 nM; on Substance-P receptor, 370 nM.

`NCc1ccc(N(CCC(=O)O)C(=O)[C@H](Cc2ccc3ccccc3c2)N=C(NC2CCCCC2)NC2CCCCC2)cc1` returned a dissociation constant (Kd) in assay [1] of 1500 nM.

Take `NCc1ccc(NC(=O)[C@@H](Cc2ccc3ccccc3c2)N=C(NC2CCCCC2)NC2CCCCC2)cc1`: binding in assay [1] was put at a Kd of 450 nM. For `CCCC[N+](CCCC)(CCCC)Cc1ccc(NC(=O)[C@@H](Cc2ccc3ccccc3c2)N=C(NC2CCCCC2)NC2CCCCC2)cc1`, the Kd in assay [1] is 79 nM; on Substance-P receptor, 290 nM. The matching figures for `NC(N)=NCCC[C@H](N)C(=O)NCc1ccc(NC(=O)[C@H](Cc2ccc3ccccc3c2)N=C(NC2CCCCC2)NC2CCCCC2)cc1`: 390 nM and 1500 nM. The matching figures for `NCc1ccc(NC(=O)[C@H](Cc2ccc3ccccc3c2)N=C(NC2CCCCC2)NC2CCCCC2)cc1`: 800 nM and 1300 nM.

Turning to `CCCC[P+](CCCC)(CCCC)Cc1ccc(NC(=O)[C@H](Cc2ccc3ccccc3c2)NC(=O)NC2CCCCC2)cc1`, the values for the equilibrium dissociation constant (Kd) (in assay [1]; at Substance-P receptor) were 1600 nM and 1300 nM, respectively. The matching figures for `N=C(N)NCc1ccc(NC(=O)[C@H](Cc2ccc3ccccc3c2)N=C(NC2CCCCC2)NC2CCCCC2)cc1`: 330 nM and 1100 nM.
